# Experimental data reported in patent publication US20100099130A1, “METHODS AND DEVICES FOR MONITORING PLATELET FUNCTION” (PLACOR INC., priority 2006, published 2010).
# Columns and labels:
# platelet adhesion = conditions: long-term aspirin therapy; cited from earlier work
# platelets = assay: Platelet Reactivity Test (PRT), time to platelet mass formation in whole blood of volunteers; type: in vivo, human; conditions: after taking aspirin, most volunteers; without aspirin the test concludes in less than 100 seconds
# Protocol: The PRT test is used to activate platelet gel formations using a small (20 microliter) whole blood sample to help identify proper platelet function in the absence of platelet drug therapy and to identify inhibited platelet function in the presence of platelet drug therapy. The test is performed by running a small quantity of blood through a channel restriction that will induce the formation of platelet gels and trap them in a focused area similar to the way platelets are activated and focused in the body. Cartridge 150 has capillary tube inlet 160 that can receive a capillary tube filled with blood. A capillary tube filled with blood can be attached to capillary tube port 200. Conduit 230 leads from capillary tube port 200 to junction 270 and junction 270 splits into conduit 250 and passageways 240, 260. Conduit 250 and passageways 240, 260 include overflow wells 280. Conduit 250 and passageways 240, 260 lead to ports 180, 170, 190, respectively. […] In a preferred embodiment, the cartridge 150 has a bar code that is read by the instrument 400. […] The instrument 400 will report the average of the platelet reactivity times determined from the blood in passageways 240 and 260. […] If the two platelet reactivity times determined from the blood in passageways 240 and 260 are greatly different, the instrument will indicate that the test is invalid. […]
smiles,measurement,setting,value
CC(=O)Oc1ccccc1C(=O)O [aspirin],individuals who do not achieve inhibition of platelet adhesion,platelet adhesion,up to 30%
same,PRT (platelet reactivity time),platelets,greater than 150 seconds
